In patent US20230085307A1, “PYRIDAZINONE COMPOUND AND HERBICIDE” (NISSAN CHEMICAL CORPORATION, priority 2019, published 2023):

Columns and labels:
late watergrass = assay: Test Example 1: herbicidal activity, application before weed generation under submerged conditions (Table 16, symbol A); assay type: in vivo, late watergrass (Echinochloa oryzicola); conditions: 320 g/ha applied herbicide
Outline: (§1)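 Emulsion formulation, water-diluted to set dose, was put onto the flooded surface (4 cm depth, alluvial soil) the same day weeds were sown and 2.5-leaf rice transplanted. After 3 weeks at 25-30 °C under glass, each species was rated 0 (≤5% kill) to 5 (≥90% kill).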

Japanese bulrush = assay: Test Example 1: herbicidal activity, application before weed generation under submerged conditions (Table 16, symbol B); assay type: in vivo, Japanese bulrush (Schoenoplectus juncoides); conditions: 320 g/ha applied herbicide
Outline: as §1

oval-leafed pondweed = assay: Test Example 1: herbicidal activity, application before weed generation under submerged conditions (Table 16, symbol C); assay type: in vivo, oval-leafed pondweed (Monochoria vaginalis); conditions: 320 g/ha applied herbicide
Outline: as §1

barnyard grass = assay: Test Example 3: herbicidal effect by foliage application, Wagner pot (Table 18, symbol H); assay type: in vivo, barnyard grass (Echinochloa crus-galli); conditions: 320 g/ha
Outline: (§2)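 Plants were sown in alluvial soil held under 0.1–0.5 cm standing water and grown 14 days in a greenhouse at 25–30 °C. An emulsifiable formulation, water-diluted to the set dose, was then sprayed onto the foliage, and effects were scored three weeks later using previously defined criteria.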

Chinese sprangletop = assay: Test Example 3: herbicidal effect by foliage application, Wagner pot (Table 18, symbol D); assay type: in vivo, chinese sprangletop (Leptochloa chinensis); conditions: 320 g/ha
Outline: as §2

rice flat sedge = assay: Test Example 3: herbicidal effect by foliage application, Wagner pot (Table 18, symbol E); assay type: in vivo, rice flat sedge (Cyperus iria); conditions: 320 g/ha
Outline: as §2

Italian ryegrass [1] = assay: Test Example 4: herbicidal effect by soil treatment (Table 19, symbol K); assay type: in vivo, Italian ryegrass (Lolium multiflorum)
Outline: (§3)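 Herbicidal effect was rated 3 weeks after treatment, using the scoring criteria of an earlier test. The compound, formulated as an emulsion and diluted in water to a set herbicide amount, had been sprayed uniformly on soil over freshly sown seeds. Growth took place in a greenhouse at 25° C. to 30° C.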

windgrass = assay: Test Example 4: herbicidal effect by soil treatment (Table 19, symbol L); assay type: in vivo, windgrass (Apera spica-venti)
Outline: as §3

lambsquarters [2] = assay: Test Example 4: herbicidal effect by soil treatment (Table 19, symbol O); assay type: in vivo, lambsquarters (Chenopodium album)
Outline: as §3

chickweed = assay: Test Example 4: herbicidal effect by soil treatment (Table 19, symbol P); assay type: in vivo, common chickweed (Stellaria media)
Outline: as §3

southern crabgrass = assay: Test Example 5: herbicidal effect by foliage application, plastic box (Table 20, symbol F); assay type: in vivo, southern crabgrass (Digitaria ciliaris); conditions: foliage application
Outline: (§4)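 Foliar spray test: emulsion formulation diluted in water to a set application rate, sprayed onto 14-day-old plants raised in diluvial soil at 25° C to 30° C under glass. Both herbicidal effect and crop effect rated visually three weeks later.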

green foxtail = assay: Test Example 5: herbicidal effect by foliage application, plastic box (Table 20, symbol G); assay type: in vivo, green foxtail (Setaria viridis); conditions: foliage application
Outline: as §4

wild oat = assay: Test Example 5: herbicidal effect by foliage application, plastic box (Table 20, symbol I); assay type: in vivo, wild oat (Avena fatua); conditions: foliage application
Outline: as §4

blackgrass = assay: Test Example 5: herbicidal effect by foliage application, plastic box (Table 20, symbol J); assay type: in vivo, blackgrass (Alopecurus myosuroides); conditions: foliage application
Outline: as §4

Italian ryegrass [3] = assay: Test Example 5: herbicidal effect by foliage application, plastic box (Table 20, symbol K); assay type: in vivo, Italian ryegrass (Lolium multiflorum); conditions: foliage application
Outline: as §4

velvetleaf = assay: Test Example 5: herbicidal effect by foliage application, plastic box (Table 20, symbol M); assay type: in vivo, velvetleaf (Abutilon theophrasti); conditions: foliage application
Outline: as §4

lambsquarters [4] = assay: Test Example 5: herbicidal effect by foliage application, plastic box (Table 20, symbol O); assay type: in vivo, lambsquarters (Chenopodium album); conditions: foliage application
Outline: as §4

[5] = amount of applied herbicide 320 g/ha
[6] = 320 g/ha, three weeks after application
[7] = 320 g/ha, evaluated three weeks after application
[8] = AAH 320 g/ha, three weeks after application
[9] = 320 g/ha, 3 weeks after application

Structure (SMILES): COc1ccc(-c2sc3ccccc3c2-c2c(O)c(C)nn(C)c2=O)cc1OC [1-072]
- Herbicidal effect on A: late watergrass (grade 0-5) (late watergrass): 3 (Herbicidal rate of 40% or more and less than 70%)
- Herbicidal effect on B: Japanese bulrush (grade 0-5) (Japanese bulrush): 3 (Herbicidal rate of 40% or more and less than 70%)
- Herbicidal effect on C: oval-leafed pondweed (grade 0-5) (oval-leafed pondweed): 0 (Herbicidal rate of 5% or less (almost no effect))
- herbicidal effect on H (barnyard grass), rating 0-5 (barnyard grass): 5 (Herbicidal rate of 90% or more (almost completely withered))
- herbicidal effect on D (Chinese sprangletop), rating 0-5 (Chinese sprangletop): 5 (Herbicidal rate of 90% or more (almost completely withered))
- herbicidal effect on E (rice flat sedge), rating 0-5 (rice flat sedge): 5 (Herbicidal rate of 90% or more (almost completely withered))
- herbicidal effect rating, K: Italian ryegrass (Italian ryegrass [1]; [5]): 5 (Herbicidal rate of 90% or more (almost completely withered))
- herbicidal effect rating, L: windgrass (windgrass; [5]): 0 (Herbicidal rate of 5% or less (almost no effect))
- herbicidal effect rating, O: lambsquarters (lambsquarters [2]; [5]): 5 (Herbicidal rate of 90% or more (almost completely withered))
- herbicidal effect rating, P: chickweed (chickweed; [5]): 4 (Herbicidal rate of 70% or more and less than 90%)
- herbicidal effect grade, F: southern crabgrass (southern crabgrass; [6]): 5 (Herbicidal rate of 90% or more (almost completely withered))
- herbicidal effect grade, G: green foxtail (green foxtail; [6]): 5 (Herbicidal rate of 90% or more (almost completely withered))
- herbicidal effect grade, I: wild oat (wild oat; [6]): 4 (Herbicidal rate of 70% or more and less than 90%)
- herbicidal effect grade, J: blackgrass (blackgrass; [6]): 3 (Herbicidal rate of 40% or more and less than 70%)
- herbicidal effect grade, K: Italian ryegrass (Italian ryegrass [3]; [6]): 5 (Herbicidal rate of 90% or more (almost completely withered))
- herbicidal effect grade, M: velvetleaf (velvetleaf; [6]): 5 (Herbicidal rate of 90% or more (almost completely withered))
- herbicidal effect grade, O: lambsquarters (lambsquarters [4]; [6]): 5 (Herbicidal rate of 90% or more (almost completely withered))

Structure (SMILES): Cc1nn(C)c(=O)c(-c2c(-c3ccc(OCC4CC4)cc3)sc3ccc(F)cc23)c1O [2-060]
- Herbicidal effect on A: late watergrass (grade 0-5) (late watergrass): 0 (Herbicidal rate of 5% or less (almost no effect))
- Herbicidal effect on B: Japanese bulrush (grade 0-5) (Japanese bulrush): 5 (Herbicidal rate of 90% or more (almost completely withered))
- Herbicidal effect on C: oval-leafed pondweed (grade 0-5) (oval-leafed pondweed): 4 (Herbicidal rate of 70% or more and less than 90%)
- herbicidal effect on H (barnyard grass), rating 0-5 (barnyard grass): 3 (Herbicidal rate of 40% or more and less than 70%)
- herbicidal effect on D (Chinese sprangletop), rating 0-5 (Chinese sprangletop): 3 (Herbicidal rate of 40% or more and less than 70%)
- herbicidal effect on E (rice flat sedge), rating 0-5 (rice flat sedge): 5 (Herbicidal rate of 90% or more (almost completely withered))
- herbicidal effect rating, K: Italian ryegrass (Italian ryegrass [1]; 320 g/ha): 0 (Herbicidal rate of 5% or less (almost no effect))
- herbicidal effect rating, L: windgrass (windgrass; 320 g/ha): 0 (Herbicidal rate of 5% or less (almost no effect))
- herbicidal effect rating, O: lambsquarters (lambsquarters [2]; 320 g/ha): 4 (Herbicidal rate of 70% or more and less than 90%)
- herbicidal effect rating, P: chickweed (chickweed; 320 g/ha): 1 (Herbicidal rate of 5% or more and less than 20%)
- herbicidal effect on F: southern crabgrass (southern crabgrass; [7]): 4 (Herbicidal rate of 70% or more and less than 90%)
- herbicidal effect on G: green foxtail (green foxtail; [7]): 3 (Herbicidal rate of 40% or more and less than 70%)
- herbicidal effect on I: wild oat (wild oat; [7]): 0 (Herbicidal rate of 5% or less (almost no effect))
- herbicidal effect on J: blackgrass (blackgrass; [7]): 3 (Herbicidal rate of 40% or more and less than 70%)
- herbicidal effect on K: Italian ryegrass (Italian ryegrass [3]; [7]): 0 (Herbicidal rate of 5% or less (almost no effect))
- herbicidal effect on M: velvetleaf (velvetleaf; [7]): 4 (Herbicidal rate of 70% or more and less than 90%)
- herbicidal effect on O: lambsquarters (lambsquarters [4]; [7]): 4 (Herbicidal rate of 70% or more and less than 90%)

Structure (SMILES): C#CCOc1ccc(-c2sc3ccccc3c2-c2c(O)c(C)nn(C)c2=O)cc1 [1-136]
- Herbicidal effect on A: late watergrass (grade 0-5) (late watergrass): 3 (Herbicidal rate of 40% or more and less than 70%)
- Herbicidal effect on B: Japanese bulrush (grade 0-5) (Japanese bulrush): 2 (Herbicidal rate of 20% or more and less than 40%)
- Herbicidal effect on C: oval-leafed pondweed (grade 0-5) (oval-leafed pondweed): 0 (Herbicidal rate of 5% or less (almost no effect))
- herbicidal effect on H (barnyard grass), rating 0-5 (barnyard grass): 5 (Herbicidal rate of 90% or more (almost completely withered))
- herbicidal effect on D (Chinese sprangletop), rating 0-5 (Chinese sprangletop): 4 (Herbicidal rate of 70% or more and less than 90%)
- herbicidal effect on E (rice flat sedge), rating 0-5 (rice flat sedge): 5 (Herbicidal rate of 90% or more (almost completely withered))
- K: Italian ryegrass, herbicidal effect rating (Italian ryegrass [1]; AAH 320 g/ha): 5 (Herbicidal rate of 90% or more (almost completely withered))
- L: windgrass, herbicidal effect rating (windgrass; AAH 320 g/ha): 0 (Herbicidal rate of 5% or less (almost no effect))
- O: lambsquarters, herbicidal effect rating (lambsquarters [2]; AAH 320 g/ha): 5 (Herbicidal rate of 90% or more (almost completely withered))
- P: chickweed, herbicidal effect rating (chickweed; AAH 320 g/ha): 1 (Herbicidal rate of 5% or more and less than 20%)
- F: southern crabgrass, herbicidal effect (southern crabgrass; [8]): 0 (Herbicidal rate of 5% or less (almost no effect))
- G: green foxtail, herbicidal effect (green foxtail; [8]): 5 (Herbicidal rate of 90% or more (almost completely withered))
- I: wild oat, herbicidal effect (wild oat; [8]): 0 (Herbicidal rate of 5% or less (almost no effect))
- J: blackgrass, herbicidal effect (blackgrass; [8]): 1 (Herbicidal rate of 5% or more and less than 20%)
- K: Italian ryegrass, herbicidal effect (Italian ryegrass [3]; [8]): 5 (Herbicidal rate of 90% or more (almost completely withered))
- M: velvetleaf, herbicidal effect (velvetleaf; [8]): 4 (Herbicidal rate of 70% or more and less than 90%)
- O: lambsquarters, herbicidal effect (lambsquarters [4]; [8]): 4 (Herbicidal rate of 70% or more and less than 90%)

Structure (SMILES): CCOc1ccc(-c2sc3ccc(F)cc3c2-c2c(O)c(C)nn(C)c2=O)cc1 [2-030]
- Herbicidal effect on A: late watergrass (grade 0-5) (late watergrass): 3 (Herbicidal rate of 40% or more and less than 70%)
- Herbicidal effect on B: Japanese bulrush (grade 0-5) (Japanese bulrush): 0 (Herbicidal rate of 5% or less (almost no effect))
- Herbicidal effect on C: oval-leafed pondweed (grade 0-5) (oval-leafed pondweed): 0 (Herbicidal rate of 5% or less (almost no effect))
- herbicidal effect on H (barnyard grass), rating 0-5 (barnyard grass): 5 (Herbicidal rate of 90% or more (almost completely withered))
- herbicidal effect on D (Chinese sprangletop), rating 0-5 (Chinese sprangletop): 3 (Herbicidal rate of 40% or more and less than 70%)
- herbicidal effect on E (rice flat sedge), rating 0-5 (rice flat sedge): 5 (Herbicidal rate of 90% or more (almost completely withered))
- herbicidal effect rating, K: Italian ryegrass (Italian ryegrass [1]; 320 g/ha): 0 (Herbicidal rate of 5% or less (almost no effect))
- herbicidal effect rating, L: windgrass (windgrass; 320 g/ha): 0 (Herbicidal rate of 5% or less (almost no effect))
- herbicidal effect rating, O: lambsquarters (lambsquarters [2]; 320 g/ha): 5 (Herbicidal rate of 90% or more (almost completely withered))
- herbicidal effect rating, P: chickweed (chickweed; 320 g/ha): 3 (Herbicidal rate of 40% or more and less than 70%)
- effect on southern crabgrass (F) (southern crabgrass; [9]): 3 (Herbicidal rate of 40% or more and less than 70%)
- effect on green foxtail (G) (green foxtail; [9]): 2 (Herbicidal rate of 20% or more and less than 40%)
- effect on wild oat (I) (wild oat; [9]): 0 (Herbicidal rate of 5% or less (almost no effect))
- effect on blackgrass (J) (blackgrass; [9]): 0 (Herbicidal rate of 5% or less (almost no effect))
- effect on Italian ryegrass (K) (Italian ryegrass [3]; [9]): 3 (Herbicidal rate of 40% or more and less than 70%)
- effect on velvetleaf (M) (velvetleaf; [9]): 5 (Herbicidal rate of 90% or more (almost completely withered))
- effect on lambsquarters (O) (lambsquarters [4]; [9]): 4 (Herbicidal rate of 70% or more and less than 90%)
